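Following 48 hours of exposure in 96-well plates, responses at five concentrations were used to interpolate endpoints linearly. GI50 marks 50% less growth.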 Calls of active or inactive are those of the source. No stated cut-off is given here; in the data, active = GI50 up to about 1.1 µM and inactive = higher.
How the values were obtained:
Assay in all cases: NCI anticancer screen, dose series, 48 h
[1] = tested on: HOP-92
[2] = tested on: MDA-MB-435
[3] = tested on: COLO 205
[4] = tested on: 786-0
[5] = tested on: UACC-62
[6] = tested on: HT-29
[7] = tested on: MOLT-4
[8] = tested on: MDA-MB-231
[9] = tested on: K562
[10] = tested on: CAKI-1
[11] = tested on: Malme-3M
[12] = tested on: TK-10
[13] = tested on: T47D
[14] = tested on: DU-145
[15] = tested on: SK-MEL-5
[16] = tested on: RXF 393
[17] = tested on: SF-268
[18] = tested on: HL-60
[19] = tested on: SR
[20] = tested on: NCI-H226
[21] = tested on: SK-OV-3
[22] = tested on: NCI/ADR-RES
[23] = tested on: SN12C
[24] = tested on: BT-549
[25] = tested on: NCI-H522
[26] = tested on: Hs-578T
[27] = tested on: HOP-62
[28] = tested on: OVCAR-8
[29] = tested on: CCRF-CEM
[30] = tested on: SK-MEL-2
[31] = tested on: NCI-H23
[32] = tested on: OVCAR-4
[33] = tested on: ACHN
[34] = tested on: A498
[35] = tested on: HCT-116
[36] = tested on: HCC 2998
[37] = tested on: UACC-257
[38] = tested on: SF-295
[39] = tested on: OVCAR-3
[40] = tested on: RPMI-8226
[41] = tested on: HCT-15
[42] = tested on: OVCAR-5
[43] = tested on: SNB-75
[44] = tested on: KM12
[45] = tested on: A549
[46] = tested on: SK-MEL-28
[47] = tested on: U-251
[48] = tested on: EKVX
[49] = tested on: PC-3
[50] = tested on: IGROV-1
[51] = tested on: MDA-N
[52] = tested on: LOX IMVI
[53] = tested on: SF-539
[54] = tested on: MCF7
[55] = tested on: SW-620
[56] = tested on: NCI-H460
[57] = tested on: UO-31
[58] = tested on: SNB-19
[59] = tested on: M14

With `C(=N\N=C1NCCN1)/c1ccc2ccccc2c1` as the molecule, how does the GI50 [1] read?
Its GI50 is 0.174 µM (active).

And the GI50 [2]?
The GI50 was 15.6 µM (inactive).

And the GI50 [3]?
Its GI50 is 6.84 µM (inactive).

What about the GI50 [4] of the same molecule?
Its GI50 is 12.8 µM (inactive).

What about the GI50 [5] of the same molecule?
Its GI50 is 14.4 µM (inactive).

What about the GI50 [6] of the same molecule?
Its GI50 is 14.5 µM (inactive).

What about the GI50 [7] of the same molecule?
Its GI50 is 10.2 µM (inactive).

What about the GI50 [8] of the same molecule?
Its GI50 is 16.4 µM (inactive).

What about the GI50 [9] of the same molecule?
The GI50 was 11.6 µM (inactive).

And the GI50 [10]?
The GI50 was 9.02 µM (inactive).

And the GI50 [11]?
The GI50 was 14.2 µM (inactive).

And the GI50 [12]?
Its GI50 is 12.4 µM (inactive).

And the GI50 [13]?
The GI50 was 23.1 µM (inactive).

What about the GI50 [14] of the same molecule?
Its GI50 is 31.2 µM (inactive).

What about the GI50 [15] of the same molecule?
The GI50 was 13.2 µM (inactive).

And the GI50 [16]?
The GI50 was 17.7 µM (inactive).

What about the GI50 [17] of the same molecule?
Its GI50 is 17.9 µM (inactive).

And the GI50 [18]?
Its GI50 is 8.67 µM (inactive).

And the GI50 [19]?
Its GI50 is 12.9 µM (inactive).

And the GI50 [20]?
The GI50 was 21 µM (inactive).

What about the GI50 [21] of the same molecule?
The GI50 was 10.8 µM (inactive).

And the GI50 [22]?
The GI50 was 11.8 µM (inactive).

What about the GI50 [23] of the same molecule?
Its GI50 is 16.9 µM (inactive).

What about the GI50 [24] of the same molecule?
The GI50 was 5.53 µM (inactive).

And the GI50 [25]?
Its GI50 is 13.1 µM (inactive).

And the GI50 [26]?
The GI50 was 19.5 µM (inactive).

And the GI50 [27]?
The GI50 was 16.1 µM (inactive).

What about the GI50 [28] of the same molecule?
Its GI50 is 16.4 µM (inactive).

And the GI50 [29]?
The GI50 was 8.59 µM (inactive).

What about the GI50 [30] of the same molecule?
Its GI50 is 19.5 µM (inactive).

What about the GI50 [31] of the same molecule?
The GI50 was 19.6 µM (inactive).

What about the GI50 [32] of the same molecule?
The GI50 was 18.1 µM (inactive).

What about the GI50 [33] of the same molecule?
The GI50 was 16.5 µM (inactive).

What about the GI50 [34] of the same molecule?
The GI50 was 14 µM (inactive).

And the GI50 [35]?
Its GI50 is 15.4 µM (inactive).

What about the GI50 [36] of the same molecule?
Its GI50 is 12.7 µM (inactive).

What about the GI50 [37] of the same molecule?
The GI50 was 13.2 µM (inactive).

What about the GI50 [38] of the same molecule?
The GI50 was 14.9 µM (inactive).

And the GI50 [39]?
Its GI50 is 16.1 µM (inactive).

What about the GI50 [40] of the same molecule?
The GI50 was 12 µM (inactive).

What about the GI50 [41] of the same molecule?
Its GI50 is 18.2 µM.

What about the GI50 [42] of the same molecule?
Its GI50 is 18.7 µM (inactive).

And the GI50 [43]?
Its GI50 is 29.5 µM (inactive).

And the GI50 [44]?
Its GI50 is 14.9 µM (inactive).

What about the GI50 [45] of the same molecule?
Its GI50 is 14.4 µM (inactive).

And the GI50 [46]?
The GI50 was 14.3 µM (inactive).

What about the GI50 [47] of the same molecule?
Its GI50 is 13.9 µM (inactive).

What about the GI50 [48] of the same molecule?
The GI50 was 12.6 µM (inactive).

And the GI50 [49]?
The GI50 was 14.3 µM (inactive).

What about the GI50 [50] of the same molecule?
Its GI50 is 9.95 µM (inactive).

What about the GI50 [51] of the same molecule?
Its GI50 is 14.1 µM (inactive).

What about the GI50 [52] of the same molecule?
Its GI50 is 12.7 µM (inactive).

What about the GI50 [53] of the same molecule?
The GI50 was 19 µM (inactive).

What about the GI50 [54] of the same molecule?
Its GI50 is 15.3 µM (inactive).

And the GI50 [55]?
Its GI50 is 16.3 µM (inactive).

What about the GI50 [56] of the same molecule?
The GI50 was 14.4 µM (inactive).

And the GI50 [57]?
The GI50 was 3.67 µM (inactive).

Which results are given for `Cc1ccc(S(=O)(=O)Oc2cc(S(=O)(=O)O)cc3cc(S(=O)(=O)O)cc(N)c23)cc1`?
GI50 [1]: 22 µM (inactive); GI50 [2]: > 100 µM (inactive); GI50 [3]: > 100 µM (inactive); GI50 [4]: > 100 µM (inactive); GI50 [5]: > 100 µM (inactive); GI50 [6]: > 100 µM (inactive); GI50 [8]: > 100 µM (inactive); GI50 [9]: > 100 µM (inactive); GI50 [10]: > 100 µM (inactive); GI50 [11]: > 100 µM (inactive); GI50 [12]: > 100 µM (inactive); GI50 [13]: > 100 µM (inactive); GI50 [14]: > 100 µM (inactive); GI50 [15]: > 100 µM (inactive); GI50 [16]: > 100 µM (inactive); GI50 [17]: > 100 µM (inactive); GI50 [18]: > 100 µM (inactive); GI50 [19]: > 100 µM (inactive); GI50 [20]: > 100 µM (inactive); GI50 [21]: > 100 µM (inactive); GI50 [22]: > 100 µM (inactive); GI50 [23]: > 100 µM (inactive); GI50 [24]: > 100 µM (inactive); GI50 [25]: > 100 µM (inactive); GI50 [26]: > 100 µM (inactive); GI50 [27]: > 100 µM (inactive); GI50 [28]: > 100 µM (inactive); GI50 [29]: > 100 µM (inactive); GI50 [30]: > 100 µM (inactive); GI50 [31]: > 100 µM (inactive); GI50 [32]: > 100 µM (inactive); GI50 [33]: > 100 µM (inactive); GI50 [34]: > 100 µM (inactive); GI50 [35]: > 100 µM (inactive); GI50 [36]: > 100 µM (inactive); GI50 [37]: > 100 µM (inactive); GI50 [38]: > 100 µM (inactive); GI50 [39]: > 100 µM (inactive); GI50 [40]: > 100 µM (inactive); GI50 [41]: > 100 µM; GI50 [42]: > 100 µM (inactive); GI50 [43]: > 100 µM (inactive); GI50 [44]: > 100 µM (inactive); GI50 [45]: > 100 µM (inactive); GI50 [46]: > 100 µM (inactive); GI50 [47]: > 100 µM (inactive); GI50 [58]: > 100 µM (inactive); GI50 [48]: > 100 µM (inactive); GI50 [49]: > 100 µM (inactive); GI50 [59]: > 100 µM (inactive); GI50 [50]: > 100 µM (inactive); GI50 [51]: > 100 µM (inactive); GI50 [52]: > 100 µM (inactive); GI50 [53]: > 100 µM (inactive); GI50 [54]: > 100 µM (inactive); GI50 [55]: > 100 µM (inactive); GI50 [56]: > 100 µM (inactive); GI50 [57]: 41.1 µM (inactive)

From ChEMBL document CHEMBL1201862, “PubChem BioAssay data set” (2004)
